In patent publication US10711004B2 (Genentech, Inc., priority 2018, dated 2020) one finds IC50 data, which are given here for 44 compounds.

Chain of human TRPA1 channel (O75762 whole entry): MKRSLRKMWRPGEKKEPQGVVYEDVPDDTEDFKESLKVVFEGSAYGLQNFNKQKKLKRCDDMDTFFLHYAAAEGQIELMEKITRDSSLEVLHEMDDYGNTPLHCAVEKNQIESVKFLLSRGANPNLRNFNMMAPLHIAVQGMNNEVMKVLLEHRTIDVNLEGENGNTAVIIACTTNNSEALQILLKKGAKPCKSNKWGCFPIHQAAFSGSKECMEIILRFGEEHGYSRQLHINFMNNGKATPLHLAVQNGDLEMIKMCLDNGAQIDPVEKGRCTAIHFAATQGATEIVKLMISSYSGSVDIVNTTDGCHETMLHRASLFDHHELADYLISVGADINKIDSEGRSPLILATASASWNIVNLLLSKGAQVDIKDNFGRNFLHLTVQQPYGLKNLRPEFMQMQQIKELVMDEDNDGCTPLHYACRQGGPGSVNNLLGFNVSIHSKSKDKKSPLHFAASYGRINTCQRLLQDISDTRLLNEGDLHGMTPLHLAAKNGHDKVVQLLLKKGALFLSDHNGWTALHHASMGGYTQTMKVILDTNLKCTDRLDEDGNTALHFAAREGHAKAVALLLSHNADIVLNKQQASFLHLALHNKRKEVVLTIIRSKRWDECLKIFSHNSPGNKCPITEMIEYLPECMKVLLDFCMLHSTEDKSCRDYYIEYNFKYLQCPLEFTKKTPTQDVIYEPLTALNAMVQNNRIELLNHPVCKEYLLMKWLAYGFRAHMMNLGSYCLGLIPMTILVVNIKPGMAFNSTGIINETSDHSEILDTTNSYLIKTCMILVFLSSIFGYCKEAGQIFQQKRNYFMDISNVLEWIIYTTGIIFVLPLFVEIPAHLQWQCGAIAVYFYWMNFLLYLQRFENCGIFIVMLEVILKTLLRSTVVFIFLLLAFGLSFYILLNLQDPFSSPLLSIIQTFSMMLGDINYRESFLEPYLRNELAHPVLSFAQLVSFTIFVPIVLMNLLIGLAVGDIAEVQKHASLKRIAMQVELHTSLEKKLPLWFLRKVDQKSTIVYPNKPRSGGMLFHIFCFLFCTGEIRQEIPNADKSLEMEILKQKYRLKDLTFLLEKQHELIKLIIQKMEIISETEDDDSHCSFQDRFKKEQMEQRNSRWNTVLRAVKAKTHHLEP

In the first assay the target is human TRPA1 channel (Homo sapiens (Human), UniProt O75762). In words: hTRPA1 CHO Ca2+ FLIPR Tetra assay, block of cinnamaldehyde induced calcium influx. The conditions noted are these: CHO cells expressing TRPA1; compounds incubated 10 minutes at room temperature before cinnamaldehyde agonist; Hill coefficient fixed to 1.5. The class given is cell-based. The protocol:
CHO cells expressing TRPA1 were plated into 384-well plates, incubated overnight at 37° C., and loaded with BD calcium indicator dye for 1 hr at 37° C. followed by 15 minutes at room temperature. The assay buffer was Hank's Balanced Salt Solution (HBSS) containing 20 mM HEPES (pH readjusted to 7.4) along with 0.02% BSA.
Following dye load and plate cool down, compounds were added to the cells using FLIPR Tetra. Plates were then incubated with compounds for 10 minutes or 90 minutes at room temperature prior to adding agonist. Following this incubation, about an EC50 concentration of cinnamaldehyde (75) was added to active the channels and block of cinnamaldehyde induced calcium influx was measured.
Fixing the Hill coefficient will generally reduce variability of the IC50 determination. The IC50 results were individually examined to make sure the MIN and MAX points were set correctly prior to validation of the results.
Take `Cn1cnc2ncn(Cc3nc([C@@H]4[C@H]5Cc6ccccc6[C@H]54)no3)c(=O)c21` (stereo in doubt) [Example Compound 2, 7-methyl-1-[[3-[rac-(1R,1aR,6aS)-1,1a,6,6a-tetrahydrocyclopropa[a]inden-1-yl]-1,2,4-oxadiazol-5-yl]methyl]purin-6-one]: the IC50 – broadly, the concentration that inhibits the measured activity by half – came out at 277 nM.

Regarding `Cn1cnc2ncn(Cc3nc([C@H]4[C@@H]5Cc6ccccc6[C@@H]54)no3)c(=O)c21` (stereo in doubt) [Example Compound 3, 7-methyl-1-[[3-[rac-(1S,1aS,6aR)-1,1a,6,6a-tetrahydrocyclopropa[a]inden-1-yl]-1,2,4-oxadiazol-5-yl]methyl]purin-6-one], the IC50 is 588 nM.

For the compound `Cc1ccnc2ncn(Cc3nc([C@@H]4[C@H]5Cc6ccccc6[C@H]54)no3)c(=O)c12` (stereo in doubt) [Example Compound 14, 5-methyl-3-[[3-[rac-(1S,1aS,6aR)-1,1a,6,6a-tetrahydrocyclopropa[a]inden-1-yl]-1,2,4-oxadiazol-5-yl]methyl]pyrido[2,3-d]pyrimidin-4-one], the IC50 was 119 nM.

Consider `Cc1ccnc2ncn(Cc3nc([C@H]4[C@@H]5Cc6ccccc6[C@@H]54)no3)c(=O)c12` (stereo in doubt) [Example Compound 15, 5-methyl-3-[[3-[rac-(1R,1 aR,6aS)-1,1a,6,6a-tetrahydrocyclopropa[a]inden-1-yl]-1,2,4-oxadiazol-5-yl]methyl]pyrido[2,3-d]pyrimidin-4-one], for which the half-inhibitory concentration (IC50) is 305 nM.

In the case of `Cc1cncc2ncn(Cc3nc([C@@H]4[C@H]5Cc6ccccc6[C@H]54)no3)c(=O)c12` (stereo in doubt) [Example Compound 19, 5-methyl-3-[[3-[rac-(1R,1 aR,6aS)-1,1a,6,6a-tetrahydrocyclopropa[a]inden-1-yl]-1,2,4-oxadiazol-5-yl]methyl]pyrido[3,4-d]pyrimidin-4-one], the IC50 was 29.9 nM.

`Cc1cncc2ncn(Cc3nc([C@H]4[C@@H]5Cc6ccccc6[C@@H]54)no3)c(=O)c12` (stereo in doubt) [Example Compound 20, 5-methyl-3-[[3-[rac-(1S,1aS,6aR)-1,1a,6,6a-tetrahydrocyclopropa[a]inden-1-yl]-1,2,4-oxadiazol-5-yl]methyl]pyrido[3,4-d]pyrimidin-4-one]: the 50% inhibitory concentration (IC50) came out at 94.3 nM.

Staying with this assay, now noted: read-out: hTRPA1 IC50 (10 min); CHO cells expressing TRPA1; compounds incubated 10 minutes at room temperature before cinnamaldehyde agonist; Hill coefficient fixed to 1.5.
Turning to `Cn1cnc2ncn(Cc3nc([C@H]4[C@@H]5CN(c6ccccc6Cl)C[C@@H]54)no3)c(=O)c21`, the concentration for half-maximal inhibition (IC50) came to 77.3 nM.

In the case of `Cn1cnc2ncn(Cc3nc([C@H]4[C@@H]5CN(c6ccc(Cl)c(Cl)c6)C[C@@H]54)no3)c(=O)c21`, the IC50 came out at 64.3 nM.

For the compound `Cn1cnc2ncn(Cc3nc([C@H]4[C@@H]5CN(c6cc(Cl)ccc6F)C[C@@H]54)no3)c(=O)c21`, the IC50 turned out to be 12.5 nM.

As to `Cn1cnc2ncn(Cc3nc([C@H]4[C@@H]5CN(c6cc(F)cc(Cl)c6)C[C@@H]54)no3)c(=O)c21`, the IC50 came out at 20.5 nM.

For the compound `Cn1cnc2ncn(Cc3nc([C@H]4[C@@H]5CN(c6ccc(F)c(Cl)c6)C[C@@H]54)no3)c(=O)c21`, the IC50 is 9.78 nM.

In the case of `Cn1cnc2ncn(Cc3nc([C@H]4[C@@H]5CN(c6cccc(C(F)F)c6)C[C@@H]54)no3)c(=O)c21`, the IC50 was 64.4 nM.

On to `Cn1cnc2ncn(Cc3nc([C@H]4[C@@H]5CN(c6cccc(SC(F)(F)F)c6)C[C@@H]54)no3)c(=O)c21`, for which the IC50 came out at 300 nM.

For `CC(=O)c1cccc(N2C[C@@H]3[C@H](C2)[C@H]3c2noc(Cn3cnc4ncn(C)c4c3=O)n2)c1`, the IC50 stood at 295 nM.

As for `Cn1cnc2ncn(Cc3nc([C@H]4[C@@H]5CN(c6ccc7c(c6)CCC7)C[C@@H]54)no3)c(=O)c21`, the IC50 amounted to 111 nM.

For `Cn1cnc2ncn(Cc3nc([C@H]4[C@@H]5CN(c6cccc(C7CC7)c6)C[C@@H]54)no3)c(=O)c21`, the IC50 was found to be 112 nM.

Take `O=c1c2ccncc2ncn1Cc1nc([C@H]2C[C@](F)(c3ccc(Cl)cc3)C2)no1`: the concentration for half-maximal inhibition (IC50) is 190 nM.

Regarding `O=c1c2cccnc2ncn1Cc1nc([C@H]2C[C@H](c3cccc(Cl)c3)C2)no1`, the IC50 is 49 nM.

On to `O=c1c2cccnc2ncn1Cc1nc([C@H]2C[C@](F)(c3ccc(Cl)cc3)C2)no1`, for which the IC50 was 20.2 nM.

As for `O=c1c2cccnc2ncn1Cc1nc([C@H]2C[C@](O)(c3cccc(Cl)c3)C2)no1`, the IC50 amounted to 281 nM.

As to `Cc1ccnc2ncn(Cc3nc([C@H]4C[C@H](c5cccc(Cl)c5)C4)no3)c(=O)c12`, the 50% inhibitory concentration (IC50) worked out at 12.2 nM.

On to `Cc1ccnc2ncn(Cc3nc([C@H]4C[C@](O)(c5cccc(Cl)c5)C4)no3)c(=O)c12`, for which the IC50 was 57.8 nM.

As for `COc1ccc([C@H]2C[C@H](c3noc(Cn4cnc5nccc(C)c5c4=O)n3)C2)cc1`, the IC50 stood at 38.7 nM.

For `Cc1ccnc2ncn(Cc3nc([C@H]4C[C@H](c5ccc(OC(F)F)cc5)C4)no3)c(=O)c12`, the IC50 stood at 51.3 nM.

Turning to `Cc1ccnc2ncn(Cc3nc([C@H]4C[C@H](c5ccc(OC(F)(F)F)cc5)C4)no3)c(=O)c12`, the concentration for half-maximal inhibition (IC50) turned out to be 63.8 nM.

`Cc1ccnc2ncn(Cc3nc([C@H]4[C@@H]5CN(c6ccccc6)C[C@@H]54)no3)c(=O)c12`: the concentration for half-maximal inhibition (IC50) turned out to be 39 nM.

As to `Cc1cncc2ncn(Cc3nc([C@H]4[C@@H]5CN(c6ccccc6)C[C@@H]54)no3)c(=O)c12`, the concentration for half-maximal inhibition (IC50) is 14.6 nM.

In the case of `Cc1cncc2ncn(Cc3nc([C@H]4[C@@H]5CN(c6cccc(Cl)c6)C[C@@H]54)no3)c(=O)c12`, the IC50 came out at 81.5 nM.

`Cn1cnc2ncn(Cc3nc([C@H]4[C@@H]5CN(c6ccc7c(cnn7C)c6)C[C@@H]54)no3)c(=O)c21`: the IC50 was found to be 141 nM.

In the case of `Cn1cnc2ncn(Cc3nc([C@H]4[C@@H]5CN(c6ccc7ccncc7c6)C[C@@H]54)no3)c(=O)c21`, the IC50 was found to be 69.2 nM.

Regarding `Cn1cnc2ncn(Cc3nc([C@H]4[C@@H]5CN(c6ccc7ncccc7c6)C[C@@H]54)no3)c(=O)c21`, the IC50 came out at 166 nM.

Regarding `Cn1cnc2ncn(Cc3nc([C@H]4[C@@H]5CN(c6cnc7ccccc7c6)C[C@@H]54)no3)c(=O)c21`, the IC50 stood at 169 nM.

Turning to `Cn1cnc2ncn(Cc3nc([C@H]4[C@@H]5CN(c6cncc(Cl)c6)C[C@@H]54)no3)c(=O)c21`, the concentration for half-maximal inhibition (IC50) came to 287 nM.

Regarding `Cn1cnc2ncn(Cc3nc([C@@H]4CC[C@@H](c5ccccc5)C4)no3)c(=O)c21`, the IC50 turned out to be 149 nM.

On to `Cn1cnc2ncn(Cc3nc([C@H]4C[C@H](c5ccc(OC(F)F)cc5)C4)no3)c(=O)c21`, for which the IC50 was determined as 142 nM.

Turning to `Cn1cnc2ncn(Cc3nc([C@H]4C[C@H](c5ccc(OC(F)(F)F)cc5)C4)no3)c(=O)c21`, the half-inhibitory concentration (IC50) was 196 nM.

For the compound “1-((3-((1R,5S,6r)-3-(3-fluorophenyl)-3-azabicyclo[3.1.0]hexan-6-yl)-1,2,4-oxadiazol-5-yl)methyl)-7-methyl-1,7-dihydro-6H-purin-6-one-2-d [Example Compound 89]”, the half-inhibitory concentration (IC50) was determined as 31.1 nM.

For “1-((3-((1r,3r)-3-((3-chlorophenyl)difluoromethyl) cyclobutyl)-1,2,4-oxadiazol-5-yl)methyl)-7-methyl-1,7-dihydro-6H-purin-6-one [Example Compound 81]”, the IC50 came to 143 nM.

Take `Cn1cnc2ncn(Cc3nc([C@H]4C[C@H](C(F)(F)c5cccc(F)c5)C4)no3)c(=O)c21` (stereo in doubt) [Example Compound 248, 1-[[3-[trans-3-[difluoro-(3-fluorophenyl)methyl]cyclobutyl]-1,2,4-oxadiazol-5-yl]methyl]-7-methyl-purin-6-one]: the concentration for half-maximal inhibition (IC50) is 11.1 nM.

With `Cn1cnc2ncn(Cc3nc([C@H]4[C@@H]5CN(c6cccc(OC(F)(F)F)c6)C[C@@H]54)no3)c(=O)c21` [Example Compound 4, 7-methyl-1-[[3-[(1R,5S,6r)-3-(3-trifluoromethoxy)phenyl-3-azabicyclo[3.1.0]hexan-6-yl]-1,2,4-oxadiazol-5-yl]methyl]purin-6-one], the half-inhibitory concentration (IC50) worked out at 119 nM.

As to `Cn1cnc2ncn(Cc3nc([C@H]4[C@@H]5CN(c6ccc(OC(F)(F)F)cc6)C[C@@H]54)no3)c(=O)c21` [Example Compound 6, 7-methyl-1-[[3-[(1R,5S,6 r)-3-[4-(trifluoromethoxy)phenyl]-3-azabicyclo[3.1.0]hexan-6-yl]-1,2,4-oxadiazol-5-yl]methyl]purin-6-one], the IC50 was 42.4 nM.

In the case of `Cn1cnc2ncn(Cc3nc([C@H]4[C@@H]5CN(c6ccc(F)cc6)C[C@@H]54)no3)c(=O)c21` [Example Compound 7, 7-methyl-1-[[3-[(1R,5S,6 r)-3-(4-fluorophenyl)-3-azabicyclo[3.1.0]hexan-6-yl]-1,2,4-oxadiazol-5-yl]methyl]purin-6-one], the concentration for half-maximal inhibition (IC50) stood at 31 nM.

As for `Cn1cnc2ncn(Cc3nc([C@H]4[C@@H]5CN(c6cccc(OC(F)F)c6)C[C@@H]54)no3)c(=O)c21` [Example Compound 8, 7-methyl-1-[[3-[(1R,5S,6 r)-3-[3-(difluoromethoxy)phenyl]-3-azabicyclo[3.1.0]hexan-6-yl]-1,2,4-oxadiazol-5-yl]methyl] purin-6-one], the concentration for half-maximal inhibition (IC50) was determined as 105 nM.

Take `Cc1cncc2ncn(Cc3nc([C@H]4C[C@](O)(c5ccc(Cl)cc5)C4)no3)c(=O)c12` [Example Compound 9, 3-((3-((1s,3s)-3-(4-chlorophenyl)-3-hydroxycyclobutyl)-1,2,4-oxadiazol-5-yl)methyl)-5-methylpyrido[3,4-d]pyrimidin-4(3H)-one]: the IC50 is 30.9 nM.

Still in this assay, the particulars now being: read-out: hTRPA1 IC50 (90 min); CHO cells expressing TRPA1; compounds incubated 90 minutes at room temperature before cinnamaldehyde agonist; Hill coefficient fixed to 1.5.
On to `Cn1cnc2ncn(Cc3nc([C@H]4C[C@H](C(F)(F)c5cccc(F)c5)C4)no3)c(=O)c21` (stereo in doubt) [Example Compound 248, 1-[[3-[trans-3-[difluoro-(3-fluorophenyl)methyl]cyclobutyl]-1,2,4-oxadiazol-5-yl]methyl]-7-methyl-purin-6-one], for which the 50% inhibitory concentration (IC50) came out at 5.5 nM.
